Results: US7863278B2, “Isethionate salt of a selective CDK4 inhibitor” (Warner-Lambert CompanyLLC, priority 2003, dated 2011)
Like-named read-outs stand apart in the source and are kept apart here. Each block holds one compound with its values, some of them ahead of it.

Experiments:
[1] = system: neointima formation; settings: rats; cited from earlier work
[2] = pKa of conjugate acid; assay type: physicochemical
Excerpt: The free base (Formula 1) is a dibasic compound, which may form both mono- and di-acid addition salts. Its conjugate acid has pKas of 7.3 and 4.1, so comparatively strong acids are necessary for generating the di-salt. Though it may be possible to form a di-isethionate salt of the compound of Formula 1, the mono-isethionate salt appears to be more useful since it requires less counter ion.

[3] = bioavailability in animal studies; assay type: in vivo
Excerpt: . However, moisture uptake studies reveal that, even at low relative humidity (10% RH), the di-HCl salt absorbs water in an amount greater than about 2% of its mass, making it unsuitable for use in a solid drug product. […]. However, the process for preparing the mono-HCl salt yields partially crystalline drug substance, indicating potential problems with process scale-up. Other salt forms of the compound of Formula 1 are thus needed.

[4] = water solubility; assay type: physicochemical; settings: for solubility at 14 h: thermodynamic from solid
Excerpt: The other isethionate salt forms were not evaluated for metastable solubility. […] See Table 5 for a list of HPLC conditions.

Structure (SMILES): COc1ccc(CNc2nc(N(CCO)CCO)nc3c2ncn3C(C)C)cc1 [CVT-313]
inhibition of neointima formation [1]: greater than 80%

pKa ([2]; read-out: pKa of conjugate acid (first)): 7.3
pKa ([2]; read-out: pKa of conjugate acid (second)): 4.1
bioavailability in animal studies [3]: low bioavailability
Solubility mgA/mL ([4]; free base final pH 7.9, 14 h equilibration): 0.009 mgA/mL
solubility at 14 h ([4]; pH 7.9, water, read-out: free base solubility): 9.2 µg/mL
solubility at 14 h ([4]; read-out: water solubility): 9 µg/mL
Structure (SMILES): CC(=O)c1c(C)c2cnc(Nc3ccc(N4CCNCC4)cn3)nc2n(C2CCCC2)c1=O [Formula 1, 6-acetyl-8-cyclopentyl-5-methyl-2-(5-piperazin-1-yl-pyridin-2-ylamino)-8H-pyrido[2,3-d]pyrimidin-7-one]

water solubility (in words) [4]: adequate water solubility
Structure (SMILES): CC(=O)c1c(C)c2cnc(Nc3ccc(N4CCNCC4)cn3)nc2n(C2CCCC2)c1=O.Cl.Cl [di-HCl salt]
